Measurements as given in patent publication US6426229B1, “Chelating agent and detergent comprising the same” (Mitsubishi Rayon Co., Ltd., priority 1995, dated 2002).

Test: Storage of aqueous solution or slurry for 60 days: HPLC analysis of components and appearance
Type: physicochemical
Conditions: keeping temperature 40° C.

SMILES	Appearance after kept for 60 days	Content of the compound of the formula [I] in aqueous solution after kept for 60 days [wt. %]
O=C([O-])CN(CC(=O)[O-])c1ccccc1C(=O)[O-].[Fe+3] [Example 110, iron salt of anthranilic acid-N,N-diacetic acid]	Reddish brown aqueous solution	49.3
O=C([O-])CN(CC(=O)[O-])c1ccccc1C(=O)[O-].[Fe+3] [Example 111, iron salt of anthranilic acid-N,N-diacetic acid]	Reddish brown aqueous solution	39.8
O=C([O-])CC(NCCNC(CC(=O)[O-])C(=O)[O-])C(=O)[O-].[Na+].[Na+].[Na+].[Na+] (centres unmarked) [Example 122, tetrasodium ethylenediamine-N,N′-disuccinate]	White slurry	74.1
O=C([O-])CC(NCCCNC(CC(=O)[O-])C(=O)[O-])C(=O)[O-].[Na+].[Na+].[Na+].[Na+] (centres unmarked) [Example 123, tetrasodium 1,3-propanediamine-N,N′-disuccinate]	White slurry	74.1
O=C([O-])CN(CC(=O)[O-])c1ccccc1C(=O)[O-].[Fe+3] [compound 42, iron salt of anthranilic acid-N,N-diacetic acid, reference compound]	Blackish brown aqueous solution	40.6

Same assay, conditions: keeping temperature 60° C.

SMILES	Appearance after kept for 60 days	Content of the compound of the formula [I] in aqueous solution after kept for 60 days [wt. %]
O=C([O-])CN[C@@H](CC(=O)[O-])C(=O)[O-].[Na+].[Na+].[Na+] [compound 35, trisodium salt of (S)-aspartic acid-N-monoacetic acid, reference compound]	Brown slurry	47.3
O=C([O-])C[C@@H](C(=O)[O-])N(CC(=O)[O-])CC(=O)[O-].[Na+].[Na+].[Na+].[Na+] [compound 36, tetrasodium salt of (S)-aspartic acid-N,N-diacetic acid, reference compound]	Brown slurry	48.3

Same assay, conditions: keeping temperature 65° C.

SMILES	Appearance after kept for 60 days	Content of the compound of the formula [I] in aqueous solution after kept for 60 days [wt. %]
O=C([O-])C[C@H](NCCN[C@@H](CC(=O)[O-])C(=O)[O-])C(=O)[O-].[Na+].[Na+].[Na+].[Na+] [Example 118, tetrasodium (S,S)-ethylenediamine-N,N′-disuccinate]	Light yellow slurry	65.4
O=C([O-])CC(NCCCNC(CC(=O)[O-])C(=O)[O-])C(=O)[O-].[Na+].[Na+].[Na+].[Na+] (centres unmarked) [Example 119, tetrasodium 1,3-propanediamine-N,N′-disuccinate]	Light yellow slurry	65.4

Same assay, conditions: keeping temperature 70° C.

Appearance after kept for 60 days	Content of the compound of the formula [I] in aqueous solution after kept for 60 days [wt. %]	SMILES
White slurry	76.9	O=C([O-])CN(CCS(=O)(=O)[O-])CC(=O)[O-].[Na+].[Na+].[Na+] [Example 108, trisodium salt of taurine-N,N-diacetic acid]
White slurry	78.5	CN(CC(=O)[O-])CC(=O)[O-].[Na+].[Na+] [Example 109, disodium N-methyliminodiacetate]
White slurry	78.4	O=C([O-])C[C@H](NCCCN[C@@H](CC(=O)[O-])C(=O)[O-])C(=O)[O-].[Na+].[Na+].[Na+].[Na+] [Example 120, tetrasodium (S,S)-1,3-propanediamine-N,N′-disuccinate]
White slurry	78.7	O=C([O-])C[C@H](NCC(O)CN[C@@H](CC(=O)[O-])C(=O)[O-])C(=O)[O-].[Na+].[Na+].[Na+].[Na+] [Example 121, tetrasodium (S,S)-2-hydroxy-1,3-propanediamine-N,N′-disuccinate]

Same assay, conditions: keeping temperature 75° C.

Appearance after kept for 60 days	Content of the compound of the formula [I] in aqueous solution after kept for 60 days [wt. %]	SMILES
Colorless transparent aqueous solution	44.3	O=C([O-])C[C@H](NCCCN[C@@H](CC(=O)[O-])C(=O)[O-])C(=O)[O-].[Na+].[Na+].[Na+].[Na+] [Example 115, tetrasodium (S,S)-1,3-propanediamine-N,N′-disuccinate]
Colorless transparent aqueous solution	44.7	O=C([O-])C[C@H](NCC(O)CN[C@@H](CC(=O)[O-])C(=O)[O-])C(=O)[O-].[Na+].[Na+].[Na+].[Na+] [Example 116, tetrasodium (S,S)-2-hydroxy-1,3-propanediamine-N,N′-disuccinate]
Dark blue transparent aqueous solution	47.9	O=C([O-])C[C@H](NCC(O)CN[C@@H](CC(=O)[O-])C(=O)[O-])C(=O)[O-].[Cu+2].[Na+].[Na+] [Example 128, copper disodium (S,S)-2-hydroxy-1,3-propanediamine-N,N′-disuccinate]
Colorless transparent aqueous solution	40.7	O=C([O-])C[C@H](NCCCN[C@@H](CC(=O)[O-])C(=O)[O-])C(=O)[O-].[Na+].[Na+].[Na+].[Na+] [compound 46, tetrasodium (S,S)-1,3-propanediamine-N,N′-disuccinate, reference compound]
Colorless transparent aqueous solution	41.8	O=C([O-])C[C@H](NCC(O)CN[C@@H](CC(=O)[O-])C(=O)[O-])C(=O)[O-].[Na+].[Na+].[Na+].[Na+] [compound 47, tetrasodium (S,S)-2-hydroxy-1,3-propanediamine-N,N′-disuccinate, reference compound]

SMILES	Appearance after kept for 60 days	Content of the compound of the formula [I] in aqueous solution after kept for 60 days [wt. %]
O=C([O-])CC(NCCNC(CC(=O)[O-])C(=O)[O-])C(=O)[O-].[Na+].[Na+].[Na+].[Na+] (centres unmarked) [Example 117, tetrasodium ethylenediamine-N,N′-disuccinate]	Colorless transparent aqueous solution	49.8
O=C([O-])CC(NCCCNC(CC(=O)[O-])C(=O)[O-])C(=O)[O-].[Na+].[Na+].[Ni+2] [Example 127, nickel disodium (S,S)-1,3-propanediamine-N,N′-disuccinate]	Blue transparent aqueous solution	44.0
O=C([O-])CN[C@@H](CC(=O)[O-])C(=O)[O-].[Na+].[Na+].[Na+] [compound 34, trisodium salt of (S)-aspartic acid-N-monoacetic acid, reference compound]	Brown aquequs solution	30.6
CN(CC(=O)[O-])CC(=O)[O-].[Na+].[Na+] [compound 41, disodium N-methyliminodiacetate, reference compound]	Light yellow transparent aqueous solution	29.6
